Patent publication US9969698B2, “Quinoxalinyl-piperazinamide methods of use” (REXAHN PHARMACEUTICALS, INC., priority 2015, dated 2018)
Where “and” joins values, the source holds several entries; their conditions need not be identical. Identical values can stand only once. Like-named read-outs stand apart in the source and are kept apart here.

Test: Human pharmacokinetics, dose-ranging study
Assay type: in vivo
Procedure: In a dose-ranging study, the pharmacokinetics (PK), safety and tolerability of RX-5902 at various oral doses were evaluated. Subjects with advanced or metastatic solid tumors were administered capsules containing RX-5902 at daily doses of 25-775 mg once weekly, 250-300 mg three times a week, 150-300 mg five times a week, or 300-350 mg seven times a week of RX-5902 for up to 6 dosing cycles. Each cycle consisting of 1-5 doses of RX-5902 per week for 3 weeks followed by 1 week of rest, or 5-7 doses of RX-5902 per week for 4 weeks without any rest per 4-week cycle. All but one subject had fasted from food for at least 8 hours before administration. One subject received 300 mg RX-5902 in fed state. Plasma concentrations were measured on Days 1 and 15, for 48 hrs, using a validated LC-MS/MS assay, and noncompartmental pharmacokinetic parameters were calculated using Phoenix WinNonlin, Version 6.4.
Preliminary PK data after a single administration is presented in FIG. 1 (for Subjects #1-11) and Table 3.

[1] = oral capsule, 300 mg, 1 per week, Day 1, fasted
[2] = oral capsule, 300 mg, 5 per week, Day 1, fasted
[3] = oral capsule, 775 mg, 1 per week, Day 1, fasted

`COc1cc(OC)cc(N2CCN(C(=O)Nc3nc4cc(F)ccc4nc3OC)CC2)c1` [RX-5902, 4-(3,5-dimethoxyphenyl)-N-(7-fluoro-3-methoxyquinoxalin-2-yl)piperazine-1-carboxamide] showed an AUC(0-t) (human, plasma, po, 300 mg, oral capsule, 300 mg, 1 per week, Day 1, fed, read-out: AUC0-24) of 8.62 µg·h/mL, an AUC(0-t) (human, plasma, po, 300 mg, oral capsule, 300 mg, 1 per week, Day 1, fed, read-out: AUC0-48) of 10.7 µg·h/mL and a Cmax (human, plasma, po, 300 mg, oral capsule, 300 mg, 1 per week, Day 1, fed, read-out: Cmax) of 0.779 µg/mL. For the same compound, the half-life (human, plasma, po, 300 mg, oral capsule, 300 mg, 1 per week, Day 1, fed, read-out: T1/2 (converted)) was 11.9 h, the Tmax (human, plasma, po, 300 mg, oral capsule, 300 mg, 1 per week, Day 1, fed, read-out: Tmax) was 4 h and the AUC(0-t) (human, plasma, po, 300 mg, oral capsule, 300 mg, 3 per week, Day 1, fasted, read-out: AUC0-24) was 3.85 µg·h/mL. The AUC(0-t) (human, plasma, po, 300 mg, oral capsule, 300 mg, 3 per week, Day 1, fasted, read-out: AUC0-48) was 4.55 µg·h/mL, the Cmax (human, plasma, po, 300 mg, oral capsule, 300 mg, 3 per week, Day 1, fasted, read-out: Cmax) was 0.288 µg/mL and the half-life (human, plasma, po, 300 mg, oral capsule, 300 mg, 3 per week, Day 1, fasted, read-out: T1/2 (converted)) was 10.3 h. The Tmax (human, plasma, po, 300 mg, oral capsule, 300 mg, 3 per week, Day 1, fasted, read-out: Tmax) was 6 h, the AUC(0-t) (human, plasma, po, 300 mg, oral capsule, 300 mg, 3 per week, Day 15, fasted, read-out: AUC0-24) was 3.05 µg·h/mL and the AUC(0-t) (human, plasma, po, 300 mg, oral capsule, 300 mg, 3 per week, Day 15, fasted, read-out: AUC0-48) was 4.14 µg·h/mL. It also gave a Cmax (human, plasma, po, 300 mg, oral capsule, 300 mg, 3 per week, Day 15, fasted, read-out: Cmax) of 0.301 µg/mL, a Tmax (human, plasma, po, 300 mg, oral capsule, 300 mg, 3 per week, Day 15, fasted, read-out: Tmax) of 2 h and an AUC(0-t) (human, plasma, po, 300 mg, oral capsule, 300 mg, 5 per week, Day 1, fasted, read-out: AUC0-24) of 3.8 µg·h/mL. It also gave a Cmax (human, plasma, po, 300 mg, oral capsule, 300 mg, 5 per week, Day 1, fasted, read-out: Cmax) of 0.317 µg/mL, an AUC(0-t) (human, plasma, po, 300 mg, oral capsule, 300 mg, 5 per week, Day 15, fasted, read-out: AUC0-24) of 3.84 µg·h/mL and a Tmax (human, plasma, po, 300 mg, oral capsule, 300 mg, 5 per week, Day 15, fasted, read-out: Tmax) of 1.5 h. The AUC(0-t) (human, plasma, po, 300 mg, oral capsule, 300 mg, 7 per week, Day 1, fasted, read-out: AUC0-24) was 2.99 µg·h/mL, the AUC(0-t) (human, plasma, po, 300 mg, oral capsule, 300 mg, 7 per week, Day 1, fasted, read-out: AUC0-48) was 3.18 µg·h/mL and the Cmax (human, plasma, po, 300 mg, oral capsule, 300 mg, 7 per week, Day 15, fasted, read-out: Cmax) was 1.25 µg/mL. For the same compound, the Tmax (human, plasma, po, 300 mg, oral capsule, 300 mg, 7 per week, Day 15, fasted, read-out: Tmax) was 6 h, the AUC(0-t) (human, plasma, po, 350 mg, oral capsule, 350 mg, 7 per week, Day 1, fasted, read-out: AUC0-24) was 4.82 µg·h/mL and the AUC(0-t) (human, plasma, po, 350 mg, oral capsule, 350 mg, 7 per week, Day 1, fasted, read-out: AUC0-48) was 4.96 µg·h/mL. The Cmax (human, plasma, po, 350 mg, oral capsule, 350 mg, 7 per week, Day 1, fasted, read-out: Cmax) was 0.75 µg/mL, the Tmax (human, plasma, po, 350 mg, oral capsule, 350 mg, 7 per week, Day 1, fasted, read-out: Tmax) was 1.5 h and the AUC(0-t) (human, plasma, po, 425 mg, oral capsule, 425 mg, 1 per week, Day 1, fasted, read-out: AUC0-24) was 9.32 µg·h/mL. The AUC(0-t) (human, plasma, po, 425 mg, oral capsule, 425 mg, 1 per week, Day 1, fasted, read-out: AUC0-48) was 14.7 µg·h/mL, the Cmax (human, plasma, po, 425 mg, oral capsule, 425 mg, 1 per week, Day 1, fasted, read-out: Cmax) was 0.66 µg/mL and the Tmax (human, plasma, po, 425 mg, oral capsule, 425 mg, 1 per week, Day 1, fasted, read-out: Tmax) was 2 h. For the same compound, the AUC(0-t) (human, plasma, po, 575 mg, oral capsule, 575 mg, 1 per week, Day 1, fasted, read-out: AUC0-24) was 6.83 µg·h/mL, the AUC(0-t) (human, plasma, po, 575 mg, oral capsule, 575 mg, 1 per week, Day 1, fasted, read-out: AUC0-48) was 10.1 µg·h/mL and the Cmax (human, plasma, po, 575 mg, oral capsule, 575 mg, 1 per week, Day 1, fasted, read-out: Cmax) was 0.707 µg/mL. It also gave a Tmax (human, plasma, po, 575 mg, oral capsule, 575 mg, 1 per week, Day 1, fasted, read-out: Tmax) of 4 h, an AUC(0-t) (human, plasma, po, 775 mg, oral capsule, 775 mg, 1 per week, Day 1, fasted, read-out: AUC0-24) of 3.54 µg·h/mL and an AUC(0-t) (human, plasma, po, 775 mg, oral capsule, 775 mg, 1 per week, Day 1, fasted, read-out: AUC0-48) of 5.01 µg·h/mL. For the same compound, the Cmax (human, plasma, po, 775 mg, oral capsule, 775 mg, 1 per week, Day 1, fasted, read-out: Cmax) was 0.487 µg/mL, the half-life (human, plasma, po, 775 mg, oral capsule, 775 mg, 1 per week, Day 1, fasted, read-out: T1/2 (converted)) was 9.7 h and the Tmax (human, plasma, po, oral capsules, all subjects, after dosing, read-out: Tmax, observed range) was 1 to 6 h. For the same compound, the half-life (human, plasma, po, oral capsules, all subjects, read-out: Apparent terminal T1/2, mean value (converted)) was 13 h, the half-life (human, plasma, po, oral capsules, all subjects, read-out: Apparent terminal T1/2, range) was 5.8 to 27.6 h and the AUC0-24 [1] was 4.17 µg·h/mL. It also gave an AUC0-48 [1] of 5.552 µg·h/mL, a Cmax [1] of 0.452 µg/mL and a T1/2 [1] of 15.6 h. For the same compound, the AUC0-24 [2] was 4.607 µg·h/mL and 3.855 µg·h/mL, the Cmax [2] was 0.549 µg/mL and 0.419 µg/mL and 0.624 µg/mL and the AUC0-24 (oral capsule, 300 mg, 5 per week, Day 15, fasted) was 4.878 µg·h/mL. For the same compound, the AUC0-24 [3] was 6.925 µg·h/mL, the AUC0-48 [3] was 8.126 µg·h/mL and the Cmax [3] was 0.654 µg/mL. The “apparent, short lag time” value (oral capsules, sometimes displayed) was 0.25 h and the “share of AUC0-t (0-48 hours) observed by 24 hours” value (oral capsules, usually) was “over 75%”.
